ChEMBL document CHEMBL3045770, “Design and synthesis of some thieno[2,3-c]pyridazine derivatives of expected anticancer activity” (2013)

Legend:
Type in all cases: functional
CAKI-1 = assay: Cytotoxicity against Homo sapiens (human) Caki1 assessed as cell growth at 10 uM after 48 hr by SRB assay relative to control; conditions: CAKI-1, 48 h, read-out: Activity
LOX IMVI = assay: Cytotoxicity against Homo sapiens (human) LOXIMVI assessed as cell growth at 10 uM after 48 hr by SRB assay relative to control; conditions: read-out: Activity
SF-295 = assay: Cytotoxicity against Homo sapiens (human) SF295 assessed as cell growth at 10 uM after 48 hr by SRB assay relative to control; conditions: SF-295, 48 h, read-out: Activity
SK-OV-3 = assay: Cytotoxicity against Homo sapiens (human) SKOV3 cells after 48 hr by SRB assay; conditions: SK-OV-3, 48 h
Hs-578T = assay: Cytotoxicity against Homo sapiens (human) Hs 578T assessed as cell growth at 10 uM after 48 hr by SRB assay relative to control; conditions: read-out: Activity
RPMI-8226 [1] = assay: Cytotoxicity against Homo sapiens (human) RPMI8226 cells after 48 hr by SRB assay; conditions: RPMI-8226, 48 h
RPMI-8226 [2] = assay: Cytotoxicity against Homo sapiens (human) RPMI8226 assessed as cell growth at 10 uM after 48 hr by SRB assay relative to control; conditions: RPMI-8226, 48 h, read-out: Activity
OVCAR-8 = assay: Cytotoxicity against Homo sapiens (human) OVCAR8 assessed as cell growth at 10 uM after 48 hr by SRB assay relative to control; conditions: OVCAR-8, 48 h, read-out: Activity
T47D = assay: Cytotoxicity against Homo sapiens (human) T47D assessed as cell growth at 10 uM after 48 hr by SRB assay relative to control; conditions: read-out: Activity
BT-549 = assay: Cytotoxicity against Homo sapiens (human) BT549 cells after 48 hr by SRB assay; conditions: BT-549, 48 h
NCI-H23 = assay: Cytotoxicity against Homo sapiens (human) NCI-H23 assessed as cell growth at 10 uM after 48 hr by SRB assay relative to control; conditions: NCI-H23, 48 h, read-out: Activity
HCT-116 [3] = assay: Cytotoxicity against Homo sapiens (human) HCT116 assessed as cell growth at 10 uM after 48 hr by SRB assay relative to control; conditions: HCT-116, 48 h, read-out: Activity
SF-539 [4] = assay: Cytotoxicity against Homo sapiens (human) SF539 cells after 48 hr by SRB assay; conditions: SF-539, 48 h
M14 = assay: Cytotoxicity against Homo sapiens (human) M14 assessed as cell growth at 10 uM after 48 hr by SRB assay relative to control; conditions: M14, 48 h, read-out: Activity
OVCAR-5 = assay: Cytotoxicity against Homo sapiens (human) OVCAR5 assessed as cell growth at 10 uM after 48 hr by SRB assay relative to control; conditions: OVCAR-5, 48 h, read-out: Activity
SF-539 [5] = assay: Cytotoxicity against Homo sapiens (human) SF539 assessed as cell growth at 10 uM after 48 hr by SRB assay relative to control; conditions: SF-539, 48 h, read-out: Activity
NCI-H522 [6] = assay: Cytotoxicity against Homo sapiens (human) NCI-H522 cells after 48 hr by SRB assay; conditions: NCI-H522, 48 h
CCRF-CEM = assay: Cytotoxicity against Homo sapiens (human) CCRF-CEM assessed as cell growth at 10 uM after 48 hr by SRB assay relative to control; conditions: read-out: Activity
SR = assay: Cytotoxicity against Homo sapiens (human) SR assessed as cell growth at 10 uM after 48 hr by SRB assay relative to control; conditions: read-out: Activity
A549 = assay: Cytotoxicity against Homo sapiens (human) A549 assessed as cell growth at 10 uM after 48 hr by SRB assay relative to control; conditions: A549, 48 h, read-out: Activity
NCI-H522 [7] = assay: Cytotoxicity against Homo sapiens (human) NCI-H522 assessed as cell growth at 10 uM after 48 hr by SRB assay relative to control; conditions: NCI-H522, 48 h, read-out: Activity
HOP-62 = assay: Cytotoxicity against Homo sapiens (human) HOP62 assessed as cell growth at 10 uM after 48 hr by SRB assay relative to control; conditions: HOP-62, 48 h, read-out: Activity
HCT-116 [8] = assay: Cytotoxicity against Homo sapiens (human) HCT116 cells after 48 hr by SRB assay; conditions: HCT-116, 48 h
786-0 = assay: Cytotoxicity against Homo sapiens (human) 786-0 assessed as cell growth at 10 uM after 48 hr by SRB assay relative to control; conditions: 786-0, 48 h, read-out: Activity
NCI-H460 = assay: Cytotoxicity against Homo sapiens (human) NCI-H460 cells after 48 hr by SRB assay; conditions: NCI-H460, 48 h
SF-268 = assay: Cytotoxicity against Homo sapiens (human) SF268 cells after 48 hr by SRB assay; conditions: SF-268, 48 h
MDA-MB-435 = assay: Cytotoxicity against Homo sapiens (human) MDA-MB-435 assessed as cell growth at 10 uM after 48 hr by SRB assay relative to control; conditions: MDA-MB-435, 48 h, read-out: Activity
MDA-MB-468 = assay: Cytotoxicity against Homo sapiens (human) MDA-MB-468 cells after 48 hr by SRB assay; conditions: MDA-MB-468, 48 h
HCT-15 = assay: Cytotoxicity against Homo sapiens (human) HCT15 cells after 48 hr by SRB assay; conditions: HCT-15, 48 h
UACC-257 = assay: Cytotoxicity against Homo sapiens (human) UACC257 assessed as cell growth at 10 uM after 48 hr by SRB assay relative to control; conditions: UACC-257, 48 h, read-out: Activity
NCI-H322M = assay: Cytotoxicity against Homo sapiens (human) NCI-H322M cells after 48 hr by SRB assay
[9] = read-out: LC50 (the source's name)

## Oc1c(-c2nnc(-c3ccc(Cl)cc3)o2)sc2nnc(-c3ccccc3)c(-c3ccccc3)c12
CAKI-1
  growth at 10 µM: 24.5%
LOX IMVI
  growth at 10 µM: 28.1%
SF-295
  growth at 10 µM: 23.5%
SK-OV-3
  GI50: 5.04 µM
  TGI: 18.3 µM
SK-OV-3; [9]
  CC50: 0.0183 µM
Hs-578T
  growth at 10 µM: 62.4%
RPMI-8226 [1]
  GI50: 3.97 µM
  TGI: 18.3 µM
RPMI-8226 [1]; [9]
  CC50: 0.0183 µM
RPMI-8226 [2]
  growth at 10 µM: 40.4%
OVCAR-8
  growth at 10 µM: 46.1%
T47D
  growth at 10 µM: 53%
BT-549
  GI50: 1.01 µM
  TGI: 18.3 µM
NCI-H23
  growth at 10 µM: 56.5%
HCT-116 [3]
  growth at 10 µM: 19.3%
SF-539 [4]
  GI50: 4.75 µM
  TGI: 15.8 µM
SF-539 [4]; [9]
  CC50: 0.0183 µM
M14
  growth at 10 µM: 55.3%
OVCAR-5
  growth at 10 µM: 84.8%
SF-539 [5]
  growth at 10 µM: 55%
NCI-H522 [6]
  GI50: 4.34 µM
  TGI: 9.76 µM
CCRF-CEM
  growth at 10 µM: 27.6%
SR
  growth at 10 µM: 35.1%
A549
  growth at 10 µM: 51.2%
NCI-H522 [7]
  growth at 10 µM: 75.1%
HOP-62
  growth at 10 µM: 51.2%
HCT-116 [8]
  GI50: 3.97 µM
  TGI: 7.16 µM
786-0
  growth at 10 µM: 61.1%
NCI-H460
  GI50: 3.15 µM
  TGI: 8.07 µM
NCI-H460; [9]
  CC50: 0.0183 µM
SF-268
  GI50: 5.52 µM
  TGI: 18.3 µM
MDA-MB-435
  growth at 10 µM: 58.6%
MDA-MB-468
  GI50: 5.04 µM
  TGI: 10.5 µM
HCT-15
  GI50: 2.27 µM
  TGI: 18.3 µM
UACC-257
  growth at 10 µM: 85%
NCI-H322M
  GI50: 4.17 µM
  TGI: 10.6 µM
NCI-H322M; [9]
  CC50: 0.0183 µM
